Paper PMC6283615, “Anilinoquinoline based inhibitors of trypanosomatid proliferation” (PLoS Neglected Tropical Diseases, 2018)
Like-named read-outs stand apart in the source and are kept apart here.

Key:
[1] = Human plasma protein binding; type: in vitro ADME; settings: read-out: Human PPB (converted)
[2] = test system: T. b. brucei (strain 427); experiment: T. b. brucei proliferation assay (PrestoBlue, 48 h); type: cell-based, Trypanosoma brucei brucei; settings: Trypanosoma brucei
Outline: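 Viability read by PrestoBlue fluorescence (530/590 nm) after 4 h with reagent, following 48 h compound exposure at 37°C, 5% CO2. Parasites (strain 427, 2.5×10^3 per well, HMI-9 medium) received triplicate 1:2 serial dilutions starting at 50 μM.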

[3] = test system: T. vivax STIB 719 / ILRAD 560; experiment: Ex vivo drug sensitivity assay for T. vivax (48 h); type: cell-based; settings: Trypanosoma vivax, STIB719, 48 h
Protocol: Ex vivo drug sensitivity assay for T. vivax (48 h): Compounds were tested ex vivo against the STIB 719 / ILRAD 560 T. vivax (drug sensitive) strain which originated from the Y486 strain, isolated from a naturally infected bovine in 1976 in Zaria, Nigeria. Compounds were assayed in at least three separate, independent experiments and an 11-point dilution curve was used to determine the EC50 values. Bloodstream form trypanosomes were harvested from a highly parasitaemic mouse (via cardiac puncture) and were incubated with test compounds for 45 h at 37°C in a humidified atmosphere containing 5% CO2, supported in HMI-9 medium containing 20% bovine serum. Thereafter, Resazurin dye was added to monitor trypanosome viability as described in the preceding section.

[4] = Plasma and brain pharmacokinetics after single i.p. dose; type: in vivo; settings: 10 mg/kg i.p., female BALB/c mice; for Kp: female, BALB/c, brain/plasma, 10 mg/kg
Protocol: PK parameters were measured for both brain and plasma following a single intraperitoneal (i.p.) dose of 10 mg/kg (see Supplementary information, S5 and S6 Tables).
Table S5. Pharmacokinetic parameters of NEU-1060 (compound 14) in plasma and brain following a single intraperitoneal administration in female BALB/c mice (Dose:
Compound Dose Route Matrix Tmax Cmax AUClast AUCinf […]
*The density of brain homogenate was considered as 1 which is equivalent to plasma density (1); Brain conc. and exposure expressed as ng/g and hr.ng/g, respectively.
NC – not calculated due to improper elimination phase
Table S6. Brain to plasma exposure ratio of NEU-1060 (compound 14) after a single intraperitoneal administration in female BALB/c mice (Dose: 10 mg/kg)
Compound Dose Route Matrix Cmax Cmax AUClast Brain to plasma
(mg/kg) (ng/mL) ratio (hr*ng/mL) exposure ratio

[5] = test system: HepG2 cells; experiment: Drug toxicity to HepG2 cells (MTT, 48 h); type: cell-based, human; settings: tested concentration ranges based on compound solubility
Outline: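 HepG2 cells plated overnight, then exposed 48 h to twelve 1.6-fold dilutions (57–10,000 ng/mL) in duplicate at 37° C, 5% CO2. MTT added for 1 h at room temperature; formazan dissolved in acidified isopropanol, absorbance read.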

[6] = test system: NIH/3T3 cells; experiment: Drug toxicity to 3T3 cells (Alamar Blue, 96 h); type: cell-based

SMILES	fraction unbound [1]	EC50 [2] [nM]	EC50 [3] [nM]	Brain to plasma exposure ratio ([4]; AUClast based, listed as NEU-1060, 10 mg/kg)	AUClast ([4]; brain) [ng·h/g]	Kp ([4]; mouse, ip, AUClast based, read-out: Brain to plasma exposure ratio)	Kp ([4]; mouse, ip, brain to plasma, read-out: Cmax ratio)	Cmax ([4]; mouse, ip, brain) [ng/g]	Tmax ([4]; mouse, ip, brain) [h]	AUC(0-t) ([4]; mouse, ip, plasma) [ng·h/mL]	Cmax ([4]; mouse, ip, plasma) [ng/mL]	Tmax ([4]; mouse, ip, plasma) [h]	HepG2 TC50 [5] [nM]	3T3 TC50 [6] [nM]
CN1CCN(c2ncc(-c3ccc4c(Nc5ccc(OCc6cccc(F)c6)c(Cl)c5)ccnc4c3)cn2)CC1 [Compound 14]	< 0.01	6	200	7.43	3474.83	7.4	2.85	211	4	468	74	0.25		
CN1CCN(c2ncc(-c3ccc4c(Nc5cnccn5)ccnc4c3)cn2)CC1 [Compound 22]			720										> 38000	34000
